According to ChEMBL document CHEMBL3132769, “Fragment growing to retain or alter the selectivity of anchored kinase hinge-binding fragments” (Medchemcomm, 2014):

How the values were obtained:
[1] = molecular target: T1, Serine/threonine-protein kinase Nek2 (Homo sapiens) (UniProt P51955); assay: Inhibition of human full length NEK2 expressed in baculovirus assessed as substrate phosphorylation using fluorescence-labelled peptides as substrate at 0.06 uM after 90 mins by microfluidic peptide phosphorylation assay
T1 sequence (whole entry): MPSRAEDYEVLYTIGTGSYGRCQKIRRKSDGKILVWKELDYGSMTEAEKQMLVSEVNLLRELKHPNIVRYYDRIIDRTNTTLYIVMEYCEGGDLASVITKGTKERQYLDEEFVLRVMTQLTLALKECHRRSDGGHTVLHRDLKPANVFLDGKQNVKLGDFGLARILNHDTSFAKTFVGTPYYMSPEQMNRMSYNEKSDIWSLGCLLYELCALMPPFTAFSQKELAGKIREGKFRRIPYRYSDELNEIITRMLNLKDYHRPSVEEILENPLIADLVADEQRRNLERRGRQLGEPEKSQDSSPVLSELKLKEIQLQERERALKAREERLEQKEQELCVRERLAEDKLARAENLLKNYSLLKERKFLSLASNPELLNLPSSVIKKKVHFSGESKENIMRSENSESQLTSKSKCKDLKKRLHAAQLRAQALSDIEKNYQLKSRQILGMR

[2] = molecular target: T2, Serine/threonine-protein kinase 3 (Homo sapiens) (UniProt Q13188); assay: Inhibition of human full length MST2 expressed in baculovirus assessed as substrate phosphorylation using fluorescence-labelled peptides as substrate at 420 uM after 90 mins by microfluidic peptide phosphorylation assay
T2 sequence (whole entry): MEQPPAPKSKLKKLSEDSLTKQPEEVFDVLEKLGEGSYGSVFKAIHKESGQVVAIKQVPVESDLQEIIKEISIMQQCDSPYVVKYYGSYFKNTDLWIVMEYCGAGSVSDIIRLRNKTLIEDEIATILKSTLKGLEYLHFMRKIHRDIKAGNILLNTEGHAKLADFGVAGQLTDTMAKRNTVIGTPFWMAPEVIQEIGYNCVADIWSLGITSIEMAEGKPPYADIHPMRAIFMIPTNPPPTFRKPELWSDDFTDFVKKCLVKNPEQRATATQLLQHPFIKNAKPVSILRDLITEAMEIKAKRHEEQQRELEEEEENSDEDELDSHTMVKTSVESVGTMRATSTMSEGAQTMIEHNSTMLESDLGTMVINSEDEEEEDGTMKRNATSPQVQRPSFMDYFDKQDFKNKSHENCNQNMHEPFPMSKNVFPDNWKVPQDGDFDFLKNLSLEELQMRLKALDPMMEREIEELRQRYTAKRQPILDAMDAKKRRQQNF

[3] = tested on: T3, Receptor-type tyrosine-protein kinase FLT3 (Homo sapiens), P36888 [D835Y]; assay: Inhibition of human FLT3 D835Y mutant catalytic domain expressed in baculovirus assessed as substrate phosphorylation using fluorescence-labelled peptides as substrate at 420 uM after 90 mins by microfluidic peptide phosphorylation assay
T3 sequence (whole entry): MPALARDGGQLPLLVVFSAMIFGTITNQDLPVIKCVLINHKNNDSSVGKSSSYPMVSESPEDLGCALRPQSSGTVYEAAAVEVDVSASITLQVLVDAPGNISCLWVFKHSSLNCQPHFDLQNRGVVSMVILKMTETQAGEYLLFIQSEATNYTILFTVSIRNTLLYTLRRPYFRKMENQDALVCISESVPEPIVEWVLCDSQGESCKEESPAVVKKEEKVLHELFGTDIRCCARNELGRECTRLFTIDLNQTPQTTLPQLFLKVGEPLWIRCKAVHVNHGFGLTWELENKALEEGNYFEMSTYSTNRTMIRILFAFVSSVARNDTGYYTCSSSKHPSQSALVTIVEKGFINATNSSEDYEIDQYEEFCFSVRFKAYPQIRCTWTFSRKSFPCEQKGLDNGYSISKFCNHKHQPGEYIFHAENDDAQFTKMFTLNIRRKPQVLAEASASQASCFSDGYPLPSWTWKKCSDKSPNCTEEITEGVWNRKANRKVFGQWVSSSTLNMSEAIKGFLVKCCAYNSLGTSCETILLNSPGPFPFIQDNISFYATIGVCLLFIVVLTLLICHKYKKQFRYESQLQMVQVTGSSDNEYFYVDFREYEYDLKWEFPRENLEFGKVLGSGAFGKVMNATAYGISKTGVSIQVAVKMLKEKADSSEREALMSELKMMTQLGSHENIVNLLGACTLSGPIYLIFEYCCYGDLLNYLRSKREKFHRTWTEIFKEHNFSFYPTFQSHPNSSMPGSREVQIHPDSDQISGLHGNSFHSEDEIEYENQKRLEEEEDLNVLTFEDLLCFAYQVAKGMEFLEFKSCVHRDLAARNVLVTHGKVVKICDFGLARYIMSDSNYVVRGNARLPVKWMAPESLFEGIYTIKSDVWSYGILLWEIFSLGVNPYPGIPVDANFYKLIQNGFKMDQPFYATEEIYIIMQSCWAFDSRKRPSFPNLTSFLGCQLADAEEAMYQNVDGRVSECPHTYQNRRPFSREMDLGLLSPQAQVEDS

[4] = molecular target: MAP/microtubule affinity-regulating kinase 3 (Homo sapiens) (UniProt P27448); assay: Inhibition of human full length c-TAK1 expressed in Escherichia coli cell assessed as substrate phosphorylation using fluorescence-labelled peptides as substrate at 0.2 uM after 90 mins by microfluidic peptide phosphorylation assay
MAP/microtubule affinity-regulating kinase 3 (Homo sapiens), sequence (P27448 whole entry, looked up): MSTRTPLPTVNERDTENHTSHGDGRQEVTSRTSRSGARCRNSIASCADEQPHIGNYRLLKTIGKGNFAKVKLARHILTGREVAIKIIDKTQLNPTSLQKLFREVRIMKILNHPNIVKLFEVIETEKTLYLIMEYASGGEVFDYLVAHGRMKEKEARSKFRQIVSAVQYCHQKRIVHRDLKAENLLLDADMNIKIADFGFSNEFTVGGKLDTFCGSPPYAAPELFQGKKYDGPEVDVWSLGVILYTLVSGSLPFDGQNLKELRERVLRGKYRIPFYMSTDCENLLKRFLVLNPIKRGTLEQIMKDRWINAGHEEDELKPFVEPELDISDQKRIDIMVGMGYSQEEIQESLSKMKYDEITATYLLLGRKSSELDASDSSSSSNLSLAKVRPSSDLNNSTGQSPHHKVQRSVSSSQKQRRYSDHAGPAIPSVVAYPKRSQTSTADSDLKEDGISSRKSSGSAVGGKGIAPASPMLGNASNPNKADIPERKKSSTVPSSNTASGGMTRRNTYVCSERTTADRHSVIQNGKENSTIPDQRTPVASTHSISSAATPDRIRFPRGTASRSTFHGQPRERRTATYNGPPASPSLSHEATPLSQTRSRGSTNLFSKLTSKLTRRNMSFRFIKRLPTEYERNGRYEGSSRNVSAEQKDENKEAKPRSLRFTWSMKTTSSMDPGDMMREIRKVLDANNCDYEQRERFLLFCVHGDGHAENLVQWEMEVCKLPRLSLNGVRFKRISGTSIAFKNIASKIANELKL

[5] = molecular target: Tyrosine-protein kinase ABL1 (Homo sapiens) (UniProt P00519); assay: Inhibition of human full-length ABL expressed in baculovirus assessed as substrate phosphorylation using fluorescence-labelled peptides as substrate at 70 uM after 90 mins by microfluidic peptide phosphorylation assay
Tyrosine-protein kinase ABL1 (Homo sapiens), sequence (P00519 whole entry): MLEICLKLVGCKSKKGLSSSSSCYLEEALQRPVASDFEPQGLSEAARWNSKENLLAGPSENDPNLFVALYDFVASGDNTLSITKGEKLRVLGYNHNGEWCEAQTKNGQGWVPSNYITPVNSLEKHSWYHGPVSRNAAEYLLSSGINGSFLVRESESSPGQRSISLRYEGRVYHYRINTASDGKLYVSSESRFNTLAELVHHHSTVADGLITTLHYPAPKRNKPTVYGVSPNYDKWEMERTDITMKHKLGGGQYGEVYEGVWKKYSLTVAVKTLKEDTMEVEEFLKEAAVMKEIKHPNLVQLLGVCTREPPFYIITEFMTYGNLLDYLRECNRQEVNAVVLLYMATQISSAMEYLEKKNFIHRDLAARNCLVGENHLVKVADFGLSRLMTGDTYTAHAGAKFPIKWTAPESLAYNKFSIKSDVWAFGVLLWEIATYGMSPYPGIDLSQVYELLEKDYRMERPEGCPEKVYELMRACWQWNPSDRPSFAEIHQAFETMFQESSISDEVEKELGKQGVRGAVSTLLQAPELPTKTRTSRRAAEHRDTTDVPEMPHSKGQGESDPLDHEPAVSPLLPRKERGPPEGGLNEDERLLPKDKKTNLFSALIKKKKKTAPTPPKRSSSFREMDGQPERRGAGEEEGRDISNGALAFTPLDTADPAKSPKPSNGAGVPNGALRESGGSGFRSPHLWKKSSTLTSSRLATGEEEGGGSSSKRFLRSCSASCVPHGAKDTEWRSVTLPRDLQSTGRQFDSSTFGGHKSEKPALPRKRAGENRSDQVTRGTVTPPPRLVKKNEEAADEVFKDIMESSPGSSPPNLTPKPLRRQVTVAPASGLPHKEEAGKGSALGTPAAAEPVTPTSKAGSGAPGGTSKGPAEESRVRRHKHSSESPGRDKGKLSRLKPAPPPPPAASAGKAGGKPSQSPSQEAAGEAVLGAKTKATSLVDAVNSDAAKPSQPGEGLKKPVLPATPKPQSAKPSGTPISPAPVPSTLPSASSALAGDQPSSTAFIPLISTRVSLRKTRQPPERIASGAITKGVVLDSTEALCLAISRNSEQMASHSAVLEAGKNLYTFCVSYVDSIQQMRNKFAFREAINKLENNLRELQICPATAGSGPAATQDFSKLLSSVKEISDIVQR

[6] = molecular target: MAP kinase-activated protein kinase 2 (Homo sapiens) (UniProt P49137); assay: Inhibition of human full length MAPKAPK2 expressed in baculovirus assessed as substrate phosphorylation using fluorescence-labelled peptides as substrate at 2 uM after 90 mins by microfluidic peptide phosphorylation assay
MAP kinase-activated protein kinase 2 (Homo sapiens), sequence (P49137 whole entry, looked up, the tested form may be a part): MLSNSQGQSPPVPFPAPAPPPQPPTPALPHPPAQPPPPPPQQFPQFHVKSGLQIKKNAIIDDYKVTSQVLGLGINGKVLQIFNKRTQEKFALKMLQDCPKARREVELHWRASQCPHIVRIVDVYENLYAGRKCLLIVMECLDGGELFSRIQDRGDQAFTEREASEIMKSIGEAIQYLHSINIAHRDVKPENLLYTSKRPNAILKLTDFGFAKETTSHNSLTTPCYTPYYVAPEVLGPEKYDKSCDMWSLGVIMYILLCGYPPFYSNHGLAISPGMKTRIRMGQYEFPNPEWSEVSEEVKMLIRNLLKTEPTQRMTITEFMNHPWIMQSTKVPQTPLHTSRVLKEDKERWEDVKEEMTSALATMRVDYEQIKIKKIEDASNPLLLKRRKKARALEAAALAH

[7] = molecular target: Protein kinase C delta type (Homo sapiens) (UniProt Q05655); assay: Inhibition of human truncated PKC delta expressed in baculovirus assessed as substrate phosphorylation using fluorescence-labelled peptides as substrate at 2 uM after 90 mins by microfluidic peptide phosphorylation assay
Protein kinase C delta type (Homo sapiens), sequence (Q05655 whole entry, looked up, the tested form may be a part): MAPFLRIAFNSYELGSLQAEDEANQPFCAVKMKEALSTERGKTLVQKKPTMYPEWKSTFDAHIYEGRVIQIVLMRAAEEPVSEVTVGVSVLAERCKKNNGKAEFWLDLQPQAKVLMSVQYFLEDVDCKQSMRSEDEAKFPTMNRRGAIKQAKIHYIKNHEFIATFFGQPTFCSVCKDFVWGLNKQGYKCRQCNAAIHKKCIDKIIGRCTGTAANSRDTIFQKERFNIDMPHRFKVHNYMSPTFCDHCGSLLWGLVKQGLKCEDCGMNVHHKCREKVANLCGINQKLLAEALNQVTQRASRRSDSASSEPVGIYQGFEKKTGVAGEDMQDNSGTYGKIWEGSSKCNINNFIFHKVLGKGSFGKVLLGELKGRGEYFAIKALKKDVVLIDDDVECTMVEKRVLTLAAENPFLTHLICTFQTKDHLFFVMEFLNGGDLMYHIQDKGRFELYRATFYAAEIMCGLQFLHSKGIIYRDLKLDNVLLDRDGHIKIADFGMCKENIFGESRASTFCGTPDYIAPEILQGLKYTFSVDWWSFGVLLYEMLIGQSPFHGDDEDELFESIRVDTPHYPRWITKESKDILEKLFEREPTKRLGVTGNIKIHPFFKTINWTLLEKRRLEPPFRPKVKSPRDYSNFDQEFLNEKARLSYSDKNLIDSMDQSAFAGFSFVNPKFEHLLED

Work on `NC1(Cc2ccc(Cl)cc2)CCN(c2ncnc3[nH]ccc23)CC1` yielded an inhibition [1] of 0%.
Work on `c1nc(N2CCOCC2)c2nc[nH]c2n1` yielded an inhibition [2] of 99% and an inhibition [3] of 93%.
With `Clc1ccc(C2(c3ccc(-c4ncnc5[nH]cnc45)cc3)CCNCC2)cc1` the inhibition [4] was 27.5%.
`CNCc1ccc(-c2ncnc3[nH]cnc23)cc1` was tested, and the inhibition [5] was 47.5%.
`NC1CCN(c2ncnc3[nH]ccc23)CC1` was tested, and the inhibition [6] was 33% and the inhibition [7] was 33%.
